This passage reports TGI and GI50 results from PubChem BioAssay (NCI).

Test systems include HOP-92 NSCLC; SF-295 CNS; U251 CNS; COLO 205 colon; SF-539 CNS; SW-620 colon; UO-31 renal; ACHN renal; HCT-116 colon.
Experiment in all cases: NCI anticancer screen, dose series, 48 h

SMILES strings stand for the structures. Several values for one entry are separate records, joined by “and”; a condition that tells them apart may be missing. Identical values can stand only once.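 Results reflect a 48-hour exposure of cells in 96-well plates to compound at five concentrations. GI50 is the concentration that inhibits growth by half. Definition used: TGI = concentration required for complete inhibition of growth.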

For `COc1ccc(/C=C/C(=O)c2sc(N)nc2C)cc1`, the TGI in the experiment on HOP-92 NSCLC, in the experiment on SF-295 CNS, in the experiment on U251 CNS, in the experiment with COLO 205 colon, in the experiment with SF-539 CNS and in the experiment on SW-620 colon was above 100 µM throughout. For the same compound, the TGI in the experiment on UO-31 renal is above 100 µM.

For `COc1cc(CNC(=O)/C=C/C=C/c2ccc3c(c2)OCO3)ccc1OCc1cn(-c2ccc(Cl)c(Cl)c2)nn1`, the GI50 in the experiment with HOP-92 NSCLC is 1.48 µM; with SF-295 CNS it was 1.85 µM; in the experiment on U251 CNS, 1.65 µM; with ACHN renal, 0.504 µM; in the experiment on SF-539 CNS it was 3.26 µM; in the experiment on HCT-116 colon, 1.22 µM. The GI50 was 0.362 µM with SW-620 colon and 3.15 µM in the experiment with UO-31 renal. Further, the TGI worked out at 3.39 µM in the experiment with HOP-92 NSCLC; 4.19 µM in the experiment with SF-295 CNS; 3.22 µM with U251 CNS; 1.77 µM in the experiment with ACHN renal; 12.3 µM with SF-539 CNS; 2.84 µM in the experiment on HCT-116 colon. Further, the TGI is 1.55 µM with SW-620 colon and 13.7 µM in the experiment on UO-31 renal.

Consider `Nc1nc(N)c2cc(CNc3ccc(Cl)c(Cl)c3)ccc2n1`, for which the GI50 with SF-295 CNS was 0.419 µM; with U251 CNS, 0.433 µM; with COLO 205 colon it was 1.11 µM; in the experiment with ACHN renal, 0.495 µM; in the experiment with SF-539 CNS, 0.825 µM; in the experiment with HCT-116 colon it was 0.0839 µM. For the same compound, the GI50 in the experiment on SW-620 colon is 0.133 µM; in the experiment with UO-31 renal it was 0.865 µM. In addition, the TGI with SF-295 CNS worked out at 1.69 µM; with U251 CNS, 1.66 µM; in the experiment on COLO 205 colon it was 2.33 µM; in the experiment with ACHN renal, 1.71 µM; with SF-539 CNS it was 2.13 µM; with HCT-116 colon, 1.31 µM. Besides, the TGI worked out at 1.5 µM in the experiment on SW-620 colon and 2.17 µM in the experiment on UO-31 renal.

Turning to `C=C1CC[C@@H]2C(C)(C)[C@@H](O)CC[C@@]2(C)[C@@H]1COc1ccc2ccc(=O)oc2c1`, the GI50 was 8.62 µM with HOP-92 NSCLC; 10.5 µM with SF-295 CNS; 9.62 µM with U251 CNS; 14.3 µM in the experiment on ACHN renal; 14.7 µM with SF-539 CNS; 11.1 µM in the experiment with HCT-116 colon. Also, the GI50 in the experiment with SW-620 colon was 18.8 µM; in the experiment with UO-31 renal it was 10.2 µM. Moreover, the TGI in the experiment with HOP-92 NSCLC was 24.3 µM; in the experiment on SF-295 CNS, 22.9 µM; with U251 CNS it was 24.8 µM; in the experiment on ACHN renal it was 29.2 µM; in the experiment with SF-539 CNS, 28.5 µM; with HCT-116 colon it was 28 µM. Moreover, the TGI in the experiment on SW-620 colon is 44 µM; with UO-31 renal it was 22.9 µM.

Turning to `C/C(=N\NC(=O)CC(=O)Nc1ccc(C)cc1)c1cc2ccccc2oc1=O`, the TGI in the experiment on SF-295 CNS, with U251 CNS, with COLO 205 colon, in the experiment on ACHN renal, with SF-539 CNS and with HCT-116 colon was above 100 µM in each case. Also, the TGI in the experiment with SW-620 colon and with UO-31 renal was above 100 µM in each case.

With `CC(=O)Nc1ccc2nncnc2c1`, the TGI in the experiment on SF-295 CNS, in the experiment on U251 CNS, with COLO 205 colon, in the experiment with ACHN renal, with SF-539 CNS and in the experiment with HCT-116 colon was above 100 µM each time. The TGI in the experiment on SW-620 colon and with UO-31 renal was above 100 µM each time.

As for `Cn1cc(-c2csc(-c3c[nH]c4ncccc34)n2)c2cc(Br)cnc21`, the GI50 was 5.03 µM in the experiment on HOP-92 NSCLC; 3.01 µM in the experiment on SF-295 CNS; 2.7 µM with U251 CNS; 2.35 µM in the experiment with ACHN renal; 27.7 µM with SF-539 CNS; 2.91 µM in the experiment on HCT-116 colon. In addition, the GI50 with SW-620 colon was 4.46 µM. For the same compound, the TGI with HOP-92 NSCLC was above 100 µM; in the experiment on SF-295 CNS, 18.8 µM; in the experiment on U251 CNS, above 100 µM; in the experiment with ACHN renal, above 100 µM; in the experiment with SF-539 CNS, above 100 µM; in the experiment with HCT-116 colon, above 100 µM. In the experiment on SW-620 colon, this compound showed a TGI above 100 µM.

Turning to `COc1cccc(Nc2nc(NNC(=O)Cc3ccccc3)nc(NNC(=O)c3ccncc3)n2)c1`, the TGI in the experiment with SF-295 CNS, in the experiment with U251 CNS, in the experiment on COLO 205 colon, in the experiment on ACHN renal, with SF-539 CNS and in the experiment on HCT-116 colon was above 100 µM throughout. Also, the TGI with SW-620 colon and with UO-31 renal was above 100 µM each time. Besides, the GI50 was above 100 µM with U251 CNS, above 100 µM with COLO 205 colon, above 100 µM in the experiment on SF-539 CNS and 32.3 µM in the experiment with UO-31 renal.

For `N/C(=N\O)c1ncc(-c2ccc(C(F)(F)F)cc2)c(NC2CCCCCC2)n1`, the GI50 was 2.55 µM in the experiment with SF-295 CNS; 4.35 µM and 1.83 µM in the experiment with U251 CNS; 3.44 µM with COLO 205 colon; 4.49 µM and 2.23 µM in the experiment with ACHN renal; 3.39 µM with SF-539 CNS; 3.95 µM and 1.41 µM in the experiment on HCT-116 colon. Moreover, in the experiment on SW-620 colon, the GI50 was 4.92 µM and 3.88 µM. The TGI with SF-295 CNS amounted to 12.5 µM; with U251 CNS it was 7.51 µM; in the experiment on COLO 205 colon, 10.6 µM; in the experiment on ACHN renal, 13.3 µM; with SF-539 CNS, 12.3 µM; in the experiment with HCT-116 colon it was 11.9 µM. Further, the TGI with SW-620 colon was found to be 15.4 µM; with UO-31 renal, 10.9 µM.
